The structures appear in SMILES notation. Converted amounts (≈) assume the structure as drawn. Bounds are passed on as bounds.

For this data set the following is noted: buffer; pH 7.4; 200.0 µM.
For the compound `COc1ccccc1N1C(=O)C2C3C=CC(CC3)C2C1=O` (configuration not stated), the solubility (kinetic) (as a rule, the concentration staying in solution when a stock, usually in DMSO, is diluted into the medium) came to 30.7 µg/mL (≈ 108 µM).
In the case of `Cc1cc2nc(-c3ccc(=O)[nH]c3)n(C)c2cc1C` it was 14.1 µg/mL (≈ 55.7 µM); in that of `Cc1nc2cc(N)ccc2n1C1CCCCC1.Cl`, over 45.3 µg/mL.
To `CC(C)(C)NC(=O)C(=O)NCc1ccccn1` belongs over 35.3 µg/mL.
With `O=C(CCc1c[nH]c2ccccc12)OCc1cccc([N+](=O)[O-])c1`, the kinetic solubility is under 0.3 µg/mL.
To `O=c1[nH]c2ccc(NCc3ccc(F)cc3)cc2[nH]1` belongs 35.9 µg/mL (≈ 140 µM); to `CCOC(=O)C(Nc1ccc2ccccc2c1)C(=O)OCC`, over 45.2 µg/mL; to `CCN(CC)c1ccc2c(C)c(Cl)c(=O)oc2c1`, 6.3 µg/mL (≈ 23.7 µM).
To `N#C/C(=C(/O)c1cccs1)c1nc2ccccc2[nH]1` belongs 1.2 µg/mL (≈ 4.49 µM).
In the case of `Cc1cc(C)c(C#N)c(N2CCN(c3ccccc3F)CC2)n1` it was 3.8 µg/mL (≈ 12.2 µM).
Take `O=C(Nc1ccc(Cl)c(Cl)c1)N1CCCCCC1`: the kinetic solubility was 0.9 µg/mL (≈ 3.13 µM).
In the case of `O=C(NC1CCN(c2ncccn2)CC1)c1ccccc1F` it was 39.7 µg/mL (≈ 132 µM); in that of `CCCCC(=O)NC1(C(F)(F)F)NC(=O)N(Cc2ccccc2)C1=O` (configuration not stated), 46.1 µg/mL (≈ 129 µM); in that of `CCCCOc1ccc(C(=O)NCC(=O)NNC(=O)c2ccco2)cc1`, over 53.9 µg/mL.
`COc1ccc(C(=O)Nc2ccccc2NC(=O)c2ccc(OC)cc2)cc1` had a solubility (kinetic) of under 0.4 µg/mL.
In the case of `Cc1cccc(N2C(=O)CC(n3ccnc3)C2=O)c1C` (configuration not stated) it was 32.9 µg/mL (≈ 122 µM).
`CCOC(=O)/C(C#N)=C\c1cccnc1` yielded a solubility (kinetic) of over 30.3 µg/mL.
In the case of `CCSCc1nnc(SCC(=O)Nc2nccs2)n1CC` it was over 51.5 µg/mL; in that of `COCCn1c(N)c(Sc2ccc(C)cc2)c(=O)[nH]c1=O`, over 46.1 µg/mL.
Compound `CC1CCN(C(=O)CN2C(=O)NC(C)(c3ccc4ccccc4c3)C2=O)CC1` (configuration not stated) registered a kinetic solubility of 5.9 µg/mL (≈ 15.5 µM).
In the case of `CCOc1ccccc1NC(=O)c1ccc2[nH]c(C)c(C)c2c1` it was 2.8 µg/mL (≈ 9.08 µM); in that of `Cc1ccccc1N=C(NO)c1cccnc1`, over 34.1 µg/mL; in that of `CC(C)[C@H](NC(=O)c1ccccc1Cl)C(=O)OCC(=O)NCc1ccc2c(c1)OCO2`, over 67 µg/mL.
Compound `OC(CNc1ncnc2sccc12)c1ccccc1` (configuration not stated) returned a kinetic solubility of over 40.7 µg/mL.
In turn, `NC(=O)c1ccc(NC(=O)COC(=O)CCN2C(=O)c3ccccc3C2=O)cc1` came in with a solubility (kinetic) of over 59.3 µg/mL.
As for `O=C(COC(=O)CNC(=O)C1CCCCC1)NCc1ccccc1`, the kinetic solubility was over 49.9 µg/mL.
To `CCN(Cc1ccncc1)C(=O)c1ccc(C)o1` belongs over 36.6 µg/mL.
In the case of `COc1cc(Cl)c(C)cc1NC(=O)CN1CCCCCC1` it was under 0.3 µg/mL; in that of `COc1ccc(C(=O)NCC(=O)OCC(=O)NC2CCCCCC2)cc1`, over 54.4 µg/mL; in that of `Cc1ccccc1N=C1NC(=O)C(CO)(CO)S1`, over 39.9 µg/mL.
To `CCN(C(=O)COc1ccccc1)C1CCCCC1` belongs 37.4 µg/mL (≈ 143 µM).
For `CN(C)/C=C/C(=O)c1ccc(Cl)s1`, the kinetic solubility was over 32.4 µg/mL.
In the case of `O=C(CN1C(=O)NC2(CCCCCC2)C1=O)Nc1ccc([N+](=O)[O-])cc1` it was 13.3 µg/mL (≈ 36.9 µM).
In the case of `Cc1ccc(CONC(=O)c2ccc(Cl)cc2)cc1` it was 2 µg/mL (≈ 7.25 µM); in that of `COc1ccc(Nc2ccc([N+](=O)[O-])c3nonc23)c(OC)c1`, under 0.2 µg/mL.
Consider `CC(=O)C1=C(C)NC(SCC(N)=O)=C(C#N)C1c1ccco1` (configuration not stated), for which the solubility (kinetic) is over 47.6 µg/mL.
To `COc1cccc(N2C(=O)C3C(C2=O)C3(c2ccccc2)c2ccccc2)c1` (configuration not stated) belongs 6.3 µg/mL (≈ 17.1 µM).
In the case of `Cc1[nH]c2ccccc2c1CCNC(=O)c1c(N)no[n+]1[O-]` it was 31.3 µg/mL (≈ 104 µM); in that of `C=CCNC(=S)N1CCN(c2ncc(C(F)(F)F)cc2Cl)CC1`, 35.7 µg/mL (≈ 97.9 µM); in that of `O=[N+]([O-])c1cc(-c2cnc3ccccc3n2)ccc1Cl`, under 0.2 µg/mL.
In the case of `S=C1NCN(Cc2ccco2)CN1CCc1ccccc1` it was 9.6 µg/mL (≈ 31.8 µM); in that of `Cl.NCCN1C(=O)S/C(=C\c2ccc3c(c2)OCO3)C1=O`, over 49.3 µg/mL.
Turning to `O=C(COC(=O)c1ccccn1)NC(=O)c1ccccc1`, the kinetic solubility turned out to be 35 µg/mL (≈ 123 µM).
In the case of `CCN(C(=O)CSc1cccc[n+]1[O-])c1ccccc1` it was over 43.3 µg/mL; in that of `O=C(c1ccc(Br)s1)N1CCc2ccccc2C1`, 19.8 µg/mL (≈ 61.4 µM); in that of `Cc1ccc(-c2noc(COC(=O)c3ccco3)n2)cc1`, 8.8 µg/mL (≈ 31 µM).
To `COc1ccc(C(=O)N2CCC(C(=O)NC3CC3)CC2)cc1` belongs over 45.4 µg/mL; to `CCCCC1(C)NC(=O)N(CC(=O)Nc2ccc(Cl)cc2C)C1=O` (configuration not stated), 48.7 µg/mL (≈ 138 µM); to `COc1cc(C(=O)OCC(=O)N2CCCC2)cc2c1OCCO2`, over 48.2 µg/mL.
In the case of `CCCCNC(=O)c1cc(C)nc2ccccc12` it was over 36.3 µg/mL; in that of `CN1C(=O)NC(c2ccc(O)cc2)C2=C1CN(c1ccc(O)cc1)C2=O` (configuration not stated), over 52.7 µg/mL; in that of `CCOC(=O)c1cc(NC(=O)CCC(=O)O)ccc1N1CCCCC1`, 51.3 µg/mL (≈ 147 µM).

The record behind these values is PubChem BioAssay AID1996.
